Laboratory results as given in PubChem BioAssay AID248 (DTP/NCI, 2004).
Where “and” joins values, the source holds several entries; their conditions need not be identical. Identical values can stand only once. Toxic doses and inconclusive results are not listed. Rule as the data show it: active = T/C of 150% or more; inactive = T/C below 125%.

Test system: L1210 leukemia ip in BDF1 mice, survival T/C
Assay: NCI In Vivo Anticancer Drug Screen. Data for tumor model L1210 Leukemia (intraperitoneal) in B6D2F1 (BDF1) mice
Conditions: endpoint: mean survival time, higher = longer survival
Summary of the method: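 Tumor cells were implanted, animals were treated, and survival was followed. The result divides the treated measurement by the vehicle-control measurement.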

[1] = dose: 50.0 mg/kg/injection, schedule: Q01DX001 (ip), vehicle: saline
[2] = dose: 100.0 mg/kg/injection, schedule: Q01DX001 (ip), vehicle: saline
[3] = dose: 200.0 mg/kg/injection, schedule: Q01DX001 (ip), vehicle: saline
[4] = dose: 400.0 mg/kg/injection, schedule: Q01DX001 (ip), vehicle: saline
[5] = dose: 50.0 mg/kg/injection, schedule: Q01DX009 (ip), vehicle: saline with Tween-80
[6] = dose: 100.0 mg/kg/injection, schedule: Q01DX009 (ip), vehicle: saline with Tween-80
[7] = dose: 200.0 mg/kg/injection, schedule: Q01DX009 (ip), vehicle: saline with Tween-80
[8] = dose: 75.0 mg/kg/injection, schedule: Q01DX001 (ip), vehicle: carboxymethylcellulose (CMC)
[9] = dose: 150.0 mg/kg/injection, schedule: Q01DX001 (ip), vehicle: carboxymethylcellulose (CMC)
[10] = dose: 100.0 mg/kg/injection, schedule: Q01DX009 (ip), vehicle: Klucel (hydroxypropylcellulose) (HPC)
[11] = dose: 200.0 mg/kg/injection, schedule: Q01DX009 (ip), vehicle: Klucel (hydroxypropylcellulose) (HPC)
[12] = dose: 400.0 mg/kg/injection, schedule: Q01DX009 (ip), vehicle: Klucel (hydroxypropylcellulose) (HPC)
[13] = dose: 100.0 mg/kg/injection, schedule: Q04DX003 (ip), vehicle: Klucel (hydroxypropylcellulose) (HPC)
[14] = dose: 400.0 mg/kg/injection, schedule: Q01DX009 (ip), vehicle: saline with Tween-80
[15] = dose: 200.0 mg/kg/injection, schedule: Q04DX003 (ip), vehicle: Klucel (hydroxypropylcellulose) (HPC)
[16] = dose: 400.0 mg/kg/injection, schedule: Q04DX003 (ip), vehicle: Klucel (hydroxypropylcellulose) (HPC)
[17] = dose: 50.0 mg/kg/injection, schedule: Q01DX009 (ip), vehicle: Klucel (hydroxypropylcellulose) (HPC)
[18] = dose: 50.0 mg/kg/injection, schedule: Q01DX009 (ip), vehicle: saline
[19] = dose: 100.0 mg/kg/injection, schedule: Q01DX009 (ip), vehicle: saline

Measured: T/C

CC(O)(c1ccccc1)C(C(=O)O)c1ccccc1 (stereo not given)
inactive: [1] 103 % of control | [2] 103 % of control | [3] 103 % of control | [4] 97 % of control

COc1cccc(C(C)(C)CC(=O)O)c1
inactive: [5] 90 % of control | [6] 90 % of control | [7] 87 % of control

CN1CCC=C(COC(=O)C(C)(C)C)C1
inactive: [8] 92 % of control | [9] 87 % of control | dose: 300.0 mg/kg/injection, schedule: Q01DX001 (ip), vehicle: carboxymethylcellulose (CMC) 95 % of control

CSc1ncnc2c1ncn2N(CCCl)C(C)=O
inactive: dose: 25.0 mg/kg/injection, schedule: Q01DX001 (ip), vehicle: other 96 % of control | dose: 25.0 mg/kg/injection, schedule: Q01DX009 (ip), vehicle: other 101 % of control | dose: 25.0 mg/kg/injection, schedule: Q04DX003 (ip), vehicle: other 100 % of control | dose: 50.0 mg/kg/injection, schedule: Q01DX001 (ip), vehicle: other 98 % of control | dose: 50.0 mg/kg/injection, schedule: Q01DX009 (ip), vehicle: other 105 % of control | dose: 50.0 mg/kg/injection, schedule: Q04DX003 (ip), vehicle: other 103 % of control | dose: 100.0 mg/kg/injection, schedule: Q01DX001 (ip), vehicle: other 96 % of control and 105 % of control | dose: 100.0 mg/kg/injection, schedule: Q01DX009 (ip), vehicle: other 97 % of control | dose: 100.0 mg/kg/injection, schedule: Q04DX003 (ip), vehicle: other 102 % of control

CCCCCCCCCCCCC(CCCCCCCCCCCC)C1CCCCC1
inactive: [2] 102 % of control | [3] 104 % of control | [4] 95 % of control

COC(=O)CCSP(=S)(Oc1ccccc1)Oc1ccccc1
inactive: [10] 107 % of control | [11] 105 % of control | [12] 96 % of control

CCOC(=O)c1cc([N+](=O)[O-])cc2c1-c1c(cc([N+](=O)[O-])cc1[N+](=O)[O-])C2=O
inactive: dose: 12.5 mg/kg/injection, schedule: Q04DX003 (ip), vehicle: Klucel (hydroxypropylcellulose) (HPC) 98 % of control | dose: 25.0 mg/kg/injection, schedule: Q04DX003 (ip), vehicle: Klucel (hydroxypropylcellulose) (HPC) 101 % of control | dose: 50.0 mg/kg/injection, schedule: Q04DX003 (ip), vehicle: Klucel (hydroxypropylcellulose) (HPC) 103 % of control | [13] 96 % of control

O=C(O)c1ccc(NC(=O)c2ccc(F)cc2)cc1
inactive: [6] 94 % of control | [7] 96 % of control | [14] 105 % of control

Cc1cc(Cl)c2c(Cl)ccc(Cl)c2n1
inactive: [2] 98 % of control | [3] 96 % of control | [4] 98 % of control

Nc1ccc2ccccc2c1N=Nc1ccc(C(O)C(N)CO)cc1 (stereo not given)
inactive: dose: 6.25 mg/kg/injection, schedule: Q01DX009 (ip), vehicle: saline 117 % of control | dose: 12.5 mg/kg/injection, schedule: Q01DX009 (ip), vehicle: saline 98 % of control | dose: 25.0 mg/kg/injection, schedule: Q01DX009 (ip), vehicle: saline 96 % of control

CSc1ccc(OC(=O)NC2CCCCC2)cc1
inactive: [10] 98 % of control | [13] 98 % of control | [11] 101 % of control | [15] 101 % of control | [12] 116 % of control | [16] 101 % of control

c1cc2c(cc1-c1nnc(-c3ccc4c(c3)OCO4)nn1)OCO2
inactive: dose: 400.0 mg/kg/injection, schedule: Q01DX001 (ip), vehicle: saline with Tween-80 86 % of control

CCN(CC)CCn1ccnc1C
inactive: dose: 50.0 mg/kg/injection, schedule: Q01DX005 (ip), vehicle: saline 109 % of control | dose: 100.0 mg/kg/injection, schedule: Q01DX005 (ip), vehicle: saline 104 % of control | dose: 200.0 mg/kg/injection, schedule: Q01DX005 (ip), vehicle: saline 104 % of control

CCOP(=O)(OCC)Oc1ccc(S(C)=O)cc1 (stereo not given)
inactive: dose: 5.0 mg/kg/injection, schedule: Q01DX001 (ip), vehicle: saline 114 % of control

CCOC(=O)C1(c2cc(NS(=O)(=O)N(C)C)c(Cl)cc2NS(=O)(=O)N(C)C)CCCC1=O (stereo not given)
inactive: [1] 104 % of control | [2] 102 % of control | [3] 91 % of control

C/C=C/C(=O)Nc1ccccc1F
inactive: [10] 93 % of control | [11] 103 % of control

ClC(c1ccccc1)c1ccc(Br)cc1 (stereo not given)
inactive: [13] 108 % of control | [15] 101 % of control | [16] 90 % of control

O=[N+]([O-])c1ccc(N=Nc2ccccc2)cc1
inactive: [6] 109 % of control | [7] 104 % of control | [14] 105 % of control

CC(=O)N1CC=C2c3c1ccc(C)c3C(=O)C2C(N)=O (stereo not given)
inactive: [2] 97 % of control | [3] 94 % of control | [4] 94 % of control

CC(C)CC(Br)C(=O)NCC(=O)NC(Cc1ccccc1)C(=O)O (stereo not given)
inactive: [6] 96 % of control | [7] 93 % of control

CCCC(=O)N1CCCCC1
inactive: dose: 100.0 mg/kg/injection, schedule: Q04DX002 (ip), vehicle: Klucel (hydroxypropylcellulose) (HPC) 88 % of control

Fc1cc(F)c2ncccc2c1
inactive: dose: 12.5 mg/kg/injection, schedule: Q01DX001 (ip), vehicle: carboxymethylcellulose (CMC) 103 % of control | dose: 25.0 mg/kg/injection, schedule: Q01DX001 (ip), vehicle: carboxymethylcellulose (CMC) 98 % of control | dose: 50.0 mg/kg/injection, schedule: Q01DX001 (ip), vehicle: carboxymethylcellulose (CMC) 101 % of control | [8] 117 % of control | [9] 118 % of control

CCOC(=O)Nc1ccc([N+](=O)[O-])cc1
inactive: [10] 87 % of control | [13] 99 % of control | [11] 99 % of control | [15] 110 % of control | [12] 97 % of control | [16] 89 % of control

O=C(CSCCN1CCCCC1)N1c2ccccc2Sc2ccccc21
inactive: dose: 10.0 mg/kg/injection, schedule: Q01DX009 (ip), vehicle: saline 102 % of control | dose: 20.0 mg/kg/injection, schedule: Q01DX009 (ip), vehicle: saline 100 % of control | dose: 40.0 mg/kg/injection, schedule: Q01DX009 (ip), vehicle: saline 96 % of control

CC(C)Oc1ccc2c(c1)N(CCC1CCCCN1)c1ccccc1S2 (stereo not given)
inactive: dose: 12.5 mg/kg/injection, schedule: Q01DX009 (ip), vehicle: Klucel (hydroxypropylcellulose) (HPC) 101 % of control | dose: 25.0 mg/kg/injection, schedule: Q01DX009 (ip), vehicle: Klucel (hydroxypropylcellulose) (HPC) 103 % of control

Brc1cc(Br)c(-c2c(Br)cc(Br)cc2Br)c(Br)c1
inactive: [17] 111 % of control | [10] 93 % of control | [13] 108 % of control | [11] 101 % of control | [15] 105 % of control | [12] 98 % of control | [16] 95 % of control

CCC(C)CNCCO (stereo not given)
inactive: [18] 92 % of control | [19] 100 % of control | dose: 200.0 mg/kg/injection, schedule: Q01DX009 (ip), vehicle: saline 103 % of control

CCC(C)c1ccccc1OC(=O)Nc1ccc(OC)cc1 (stereo not given)
inactive: [17] 105 % of control | [10] 92 % of control | [13] 96 % of control | [11] 95 % of control | [15] 94 % of control | [16] 100 % of control

COC(=O)CN1C(=O)c2ccccc2C1=O
inactive: dose: 100.0 mg/kg/injection, schedule: Q04DX003 (ip), vehicle: saline 95 % of control | dose: 200.0 mg/kg/injection, schedule: Q04DX003 (ip), vehicle: saline 101 % of control | dose: 400.0 mg/kg/injection, schedule: Q04DX003 (ip), vehicle: saline 98 % of control

COc1cc(C)c(C2NC(=O)c3ccccc3N2)cc1C (stereo not given)
inactive: [17] 95 % of control | [10] 104 % of control and 109 % of control | [13] 97 % of control | dose: 150.0 mg/kg/injection, schedule: Q01DX009 (ip), vehicle: Klucel (hydroxypropylcellulose) (HPC) 109 % of control | [11] 100 % of control | [15] 97 % of control | [12] 107 % of control | [16] 103 % of control

CC1CC=C(/C=N/NC(N)=O)C(C)O1 (stereo not given)
inactive: [5] 94 % of control | [6] 88 % of control | [7] 94 % of control

Cn1nc(-c2ccc([N+](=O)[O-])o2)nc1N
inactive: [1] 98 % of control | [2] 96 % of control | [3] 98 % of control | [4] 104 % of control

O=C(Nc1ccc2c(c1)OCO2)O/N=C1\C(=O)Nc2ccccc21
inactive: [18] 103 % of control | [19] 100 % of control

ClC(c1ccccc1)c1nc2ccccc2[nH]1 (stereo not given)
inactive: [2] 94 % of control | [3] 96 % of control
